The text below walks through data of patent US20100249019A1, “USE OF A PEPTIDE AS A THERAPEUTIC AGENT” (priority 2007, published 2010).

No end group written: not given here.

One assay deals with murine spleen cells. As to the kind of experiment: Th1/Th2 cytokine profiling assay (Ovalbumin-restimulated spleen cells, CBA kit). In kind it is cell-based, Balb/c mice. The note with it: 10 micrograms per ml; 72 hours.
The subject of another assay is HCMV strain AD169. As to the kind of experiment: HCMV plaque formation assay in MRC-5 cells. The note with it: 10 micrograms per ml, 7-10 days.
Assay [1] relates to hepatitis B virus (HBV) ayw strain. Description: HBV experimental assay system (HepG2-2.2.15, TaqMan PCR of HBV DNA). The note with it: 10 micrograms per ml; six days; HBV DNA vs virus control. Format: cell-based.
The next assay has as its system RAW 264.7 cells. Description: Phagocytosis assay (Fluorescein-labeled Escherichia coli, flow cytometry). The note with it: 10 micrograms per ml; 30 min preincubation, 60 min ingestion.
The test system of assay [2] is Primary Human endothelial cells (HUVEC). As to the kind of experiment: Endothelial cell migration assay. Particulars: 10 micrograms per ml; 22 hours. In kind it is cell-based.
A further assay concerns HUVEC. As to the kind of experiment: Endothelial tube formation assay. Format: cell-based, human. Particulars: 10 micrograms per ml; 20 hours.

Source text for murine spleen cells: The Balb/c mice (originated in 1923, it is a popular strain and is used in many different research disciplines. Also classified as an inbred from the production of 20 or more successive brother-sister matings, the Balb/c mouse is albino and small in size) were immunized on Days 1, 15, and 29 with Ovalbumin (Ovalbumin is the main protein found in egg white, commonly used to stimulate an immunological reaction in test animals) in PBS (5 micrograms/injection). On day 50, spleens of the mice were harvested (3 weeks after last boost with Ovalbumin). […] Thereafter, additional Ovalbumin was added to the cells at 10 micrograms/ml for in vitro restimulation of the cells. 72 hours later, cell supernatants were harvested and assayed using the Becton Dickinson Mouse Th1/Th2 Cytokine CBA Kit.

Consider “Val-Pro-Leu-Pro-Ala-Gly-Gly-Gly-Thr-Val-Leu-Thr-Lys-Met-Tyr-Pro-Arg-Gly-Asn-His-Trp-Ala-Val-Gly-His-Leu-Met-NH2 (VPLPAGGGTVLTKMYPRGNHWAVGHLM-NH2) [Peptide 2, Gastrin Releasing Peptide; GRP, commercially available known peptide]”, for which, in the assay with murine spleen cells, the “change of the production of IFN-γ” value is “did not significantly change”, the “change of the production of IL-2” value is listed as “did not significantly change”, the “change of the production of IL-4” value is recorded as “did not significantly change” and the “change of the production of TNF-alpha” value is on record as “did not significantly change”. Moreover, in the assay with murine spleen cells, the “decrease of the production of IL-5” value turned out to be 34.0% and the “induction of the production of IL-2” value is given as 67.3%. Further, the “inhibition of HCMV plaque formation as compared to the virus control” value with HCMV strain AD169 was 4.0%. Besides, in assay [1], the “inhibition of HBV replication on tested liver cells” value was 30.6%. The “induction of phagocytosis as compared to control” value in the assay with RAW 264.7 cells worked out at 42.9%. The “inhibition of the migration of human endothelial cells” value in assay [2] is on record as 26%. Further, the “inhibition of the tube formation of human endothelial cells” value in the assay on HUVEC is “do not inhibit”.
